This note sets out measurements from ChEMBL document CHEMBL3608278 (J Med Chem, 2015).

The target of data set [1] is T1, Potassium voltage-gated channel subfamily A member 3 (Homo sapiens, UniProt P22001). Format: cell-based, CHO-K1.
Data set [2] concerns the target T1, Potassium voltage-gated channel subfamily A member 3. Details: species or system Blood.
Data set [3] shares this target. As to the kind of experiment: cell-based. Details: species or system Blood.
Data set [4] is described as follows: Half life in rat. Format: ADME, organism-based. The following applies: in vivo.

T1 sequence (P22001 whole entry): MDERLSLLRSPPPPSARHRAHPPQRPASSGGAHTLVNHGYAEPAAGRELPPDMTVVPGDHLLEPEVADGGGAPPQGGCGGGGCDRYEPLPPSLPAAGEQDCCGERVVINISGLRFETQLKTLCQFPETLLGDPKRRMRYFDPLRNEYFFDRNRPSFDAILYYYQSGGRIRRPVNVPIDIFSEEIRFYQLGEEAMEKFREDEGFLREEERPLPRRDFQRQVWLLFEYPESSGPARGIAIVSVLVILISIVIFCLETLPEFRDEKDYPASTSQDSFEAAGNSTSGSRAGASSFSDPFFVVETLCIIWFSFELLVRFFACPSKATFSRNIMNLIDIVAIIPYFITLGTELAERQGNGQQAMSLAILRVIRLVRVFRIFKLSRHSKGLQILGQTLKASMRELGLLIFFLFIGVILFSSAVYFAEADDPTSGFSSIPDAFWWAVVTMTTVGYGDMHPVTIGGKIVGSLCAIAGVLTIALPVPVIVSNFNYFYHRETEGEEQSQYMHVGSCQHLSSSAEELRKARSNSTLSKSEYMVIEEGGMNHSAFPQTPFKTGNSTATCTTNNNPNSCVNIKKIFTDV

As usually defined, the IC50 is the concentration needed to halve the response being measured. A high value points to weaker potency in that assay. For `CC[C@H](C)[C@@H]1NC(=O)[C@@H](NC(=O)[C@H](CO)NC(=O)[C@@H](N)CCCNC(=N)N)CSSC[C@@H](C(=O)O)NC(=O)[C@H]([C@@H](C)O)NC(=O)CNC(=O)[C@@H]2CSSC[C@@H]3NC(=O)[C@H](CCC(N)=O)NC(=O)[C@H](Cc4ccccc4)NC(=O)[C@H](C)NC(=O)[C@H]([C@@H](C)O)NC(=O)[C@H](CSSC[C@H](NC(=O)[C@H](Cc4ccccc4)NC(=O)[C@H](CO)NC(=O)[C@H](CC(C)C)NC(=O)[C@H](CCCNC(=N)N)NC(=O)[C@H](Cc4ccc(O)cc4)NC(=O)[C@H](CCCCN)NC(=O)[C@H](CCSC)NC(=O)[C@H](CO)NC(=O)[C@H](Cc4cnc[nH]4)NC(=O)[C@H](CCCCN)NC3=O)C(=O)N[C@@H](CCCNC(=N)N)C(=O)N[C@@H](CCCCN)C(=O)N[C@@H]([C@@H](C)O)C(=O)N2)NC(=O)[C@H](CCCNC(=N)N)NC(=O)[C@H](CO)NC(=O)[C@H](C)NC(=O)[C@@H]2CCCN2C(=O)[C@H]([C@@H](C)CC)NC(=O)[C@H]([C@@H](C)O)NC(=O)[C@H](CC(=O)O)NC1=O`, the IC50 in data set [1] came out at 0.119 nM; in data set [2], 0.081 nM; in data set [3], 0.045 nM.
The like results for `CC[C@H](C)[C@@H]1NC(=O)[C@@H](NC(=O)[C@H](CO)NC(=O)[C@@H](N)CCCNC(=N)N)CSSC[C@@H](C(=O)O)NC(=O)[C@H]([C@@H](C)O)NC(=O)CNC(=O)[C@@H]2CSSC[C@@H]3NC(=O)[C@H](CCC(N)=O)NC(=O)[C@H](Cc4ccccc4)NC(=O)[C@H](C)NC(=O)[C@H]([C@@H](C)O)NC(=O)[C@H](CSSC[C@H](NC(=O)[C@H](Cc4ccccc4)NC(=O)[C@H](CO)NC(=O)[C@H](Cc4cccc5ccccc45)NC(=O)[C@H](CCCNC(=N)N)NC(=O)[C@H](Cc4ccc(O)cc4)NC(=O)[C@H](CCCCN)NC(=O)[C@H](CCSC)NC(=O)[C@H](CO)NC(=O)[C@H](Cc4cnc[nH]4)NC(=O)[C@H](CCCCN)NC3=O)C(=O)N[C@@H](CCCNC(=N)N)C(=O)N[C@@H](CCCCN)C(=O)N[C@@H]([C@@H](C)O)C(=O)N2)NC(=O)[C@H](CCCNC(=N)N)NC(=O)[C@H](CO)NC(=O)[C@H](CCCCN)NC(=O)[C@@H]2CCCN2C(=O)[C@H]([C@@H](C)CC)NC(=O)[C@H]([C@@H](C)O)NC(=O)[C@H](CC(=O)O)NC1=O` were, in that order, 0.103 nM, 0.084 nM and 0.061 nM.
Usually half-life stands for the time needed for the level to fall by half in the phase considered. The low end stands for fast loss, the high end for slow loss. In data set [4], `CC[C@H](C)[C@@H]1NC(=O)[C@@H](NC(=O)[C@H](CO)NC(=O)[C@@H](N)CCCNC(=N)N)CSSC[C@@H](C(=O)O)NC(=O)[C@H]([C@@H](C)O)NC(=O)CNC(=O)[C@@H]2CSSC[C@@H]3NC(=O)[C@H](CCC(N)=O)NC(=O)[C@H](Cc4ccccc4)NC(=O)[C@H](C)NC(=O)[C@H]([C@@H](C)O)NC(=O)[C@H](CSSC[C@H](NC(=O)[C@H](Cc4ccccc4)NC(=O)[C@H](CO)NC(=O)[C@H](CC(C)C)NC(=O)[C@H](CCCNC(=N)N)NC(=O)[C@H](Cc4ccc(O)cc4)NC(=O)[C@H](CCCCN)NC(=O)[C@H](CCSC)NC(=O)[C@H](CO)NC(=O)[C@H](Cc4cnc[nH]4)NC(=O)[C@H](CCCCN)NC3=O)C(=O)N[C@@H](CCCNC(=N)N)C(=O)N[C@@H](CCCCN)C(=O)N[C@@H]([C@@H](C)O)C(=O)N2)NC(=O)[C@H](CCCNC(=N)N)NC(=O)[C@H](CO)NC(=O)[C@H](CCCCN)NC(=O)[C@@H]2CCCN2C(=O)[C@H]([C@@H](C)CC)NC(=O)[C@H]([C@@H](C)O)NC(=O)[C@H](CC(=O)O)NC1=O` came in with a half-life of 20 min.
Regarding `CC[C@H](C)[C@@H]1NC(=O)[C@@H](NC(=O)[C@H](CO)NC(=O)[C@@H](N)CCCNC(=N)N)CSSC[C@@H](C(=O)O)NC(=O)[C@H]([C@@H](C)O)NC(=O)CNC(=O)[C@@H]2CSSC[C@@H]3NC(=O)[C@H](CCC(N)=O)NC(=O)[C@H](Cc4ccccc4)NC(=O)[C@H](C)NC(=O)[C@H]([C@@H](C)O)NC(=O)[C@H](CSSC[C@H](NC(=O)[C@H](Cc4ccccc4)NC(=O)[C@H](CO)NC(=O)[C@H](CCC(=O)O)NC(=O)[C@H](CCCNC(=N)N)NC(=O)[C@H](Cc4ccc(O)cc4)NC(=O)[C@H](CCCCN)NC(=O)[C@H](CCSC)NC(=O)[C@H](CO)NC(=O)[C@H](Cc4cnc[nH]4)NC(=O)[C@H](CCCCN)NC3=O)C(=O)N[C@@H](CCCNC(=N)N)C(=O)N[C@@H](CCCCN)C(=O)N[C@@H]([C@@H](C)O)C(=O)N2)NC(=O)[C@H](CCCNC(=N)N)NC(=O)[C@H](CO)NC(=O)[C@H](CCCCN)NC(=O)[C@@H]2CCCN2C(=O)[C@H]([C@@H](C)CC)NC(=O)[C@H]([C@@H](C)O)NC(=O)[C@H](CC(=O)O)NC1=O`, the IC50 in data set [1] came out at 0.245 nM; in data set [2] it was 0.678 nM; in data set [3], 0.494 nM.
In the case of `CC[C@H](C)[C@@H]1NC(=O)[C@@H](NC(=O)[C@H](CO)NC(=O)[C@@H](N)CCCNC(=N)N)CSSC[C@@H](C(=O)O)NC(=O)[C@H]([C@@H](C)O)NC(=O)CNC(=O)[C@@H]2CSSC[C@@H]3NC(=O)[C@H](Cc4cccc5ccccc45)NC(=O)[C@H](Cc4ccccc4)NC(=O)[C@H](C)NC(=O)[C@H]([C@@H](C)O)NC(=O)[C@H](CSSC[C@H](NC(=O)[C@H](Cc4ccccc4)NC(=O)[C@H](CO)NC(=O)[C@H](CC(C)C)NC(=O)[C@H](CCCNC(=N)N)NC(=O)[C@H](Cc4ccc(O)cc4)NC(=O)[C@H](CCCCN)NC(=O)[C@H](CCSC)NC(=O)[C@H](CO)NC(=O)[C@H](Cc4cnc[nH]4)NC(=O)[C@H](CCCCN)NC3=O)C(=O)N[C@@H](CCCNC(=N)N)C(=O)N[C@@H](CCCCN)C(=O)N[C@@H]([C@@H](C)O)C(=O)N2)NC(=O)[C@H](CCCNC(=N)N)NC(=O)[C@H](CO)NC(=O)[C@H](CCCCN)NC(=O)[C@@H]2CCCN2C(=O)[C@H]([C@@H](C)CC)NC(=O)[C@H]([C@@H](C)O)NC(=O)[C@H](CC(=O)O)NC1=O`, the IC50 in data set [1] was 1.44 nM; in data set [2], 9.55 nM; in data set [3], 28.9 nM.
